Results published in the NIST ThermoML archive (doi:10.1016/j.jct.2013.05.036).
Numbers after ± are expanded uncertainties.

Settings: 101.33 kPa, Liquid, Levitation methods

Row | SMILES | viscosity (2900 K) | viscosity (2950 K) | viscosity (3000 K) | viscosity (3050 K) | viscosity (3100 K) | viscosity (3150 K) | viscosity (3200 K) | viscosity (3250 K) | viscosity (3300 K) | viscosity (3350 K) | viscosity (3400 K) | viscosity (3450 K) | viscosity (3500 K) | viscosity (3550 K) | viscosity (3600 K) | further results
1 | [Mo] [molybdenum] | 5 ± 1 mPa·s | 4.8 ± 1 mPa·s | 4.6 ± 0.9 mPa·s | 4.5 ± 0.9 mPa·s | 4.3 ± 0.9 mPa·s | 4.2 ± 0.8 mPa·s |  |  |  |  |  |  |  |  |  | viscosity (2573 K): 6.7 ± 1.4 mPa·s; viscosity (2600 K): 6.6 ± 1.4 mPa·s; viscosity (2650 K): 6.2 ± 1.3 mPa·s; viscosity (2700 K): 5.9 ± 1.2 mPa·s; viscosity (2750 K): 5.7 ± 1.2 mPa·s; viscosity (2800 K): 5.4 ± 1.1 mPa·s; viscosity (2850 K): 5.2 ± 1.1 mPa·s; viscosity (2896 K): 5 ± 1 mPa·s; viscosity (3213 K): 4 ± 0.8 mPa·s
2 | [Os] [osmium] |  |  |  |  |  |  |  |  |  |  |  |  |  |  |  | viscosity (3265 K): 7.4 ± 1.5 mPa·s; viscosity (3290 K): 7.2 ± 1.5 mPa·s; viscosity (3306 K): 7 ± 1.4 mPa·s; viscosity (3315 K): 7 ± 1.4 mPa·s; viscosity (3340 K): 6.7 ± 1.4 mPa·s; viscosity (3365 K): 6.5 ± 1.4 mPa·s; viscosity (3390 K): 6.3 ± 1.3 mPa·s; viscosity (3415 K): 6.1 ± 1.3 mPa·s; viscosity (3440 K): 6 ± 1.2 mPa·s; viscosity (3465 K): 5.8 ± 1.2 mPa·s; viscosity (3490 K): 5.6 ± 1.2 mPa·s; viscosity (3515 K): 5.5 ± 1.1 mPa·s; viscosity (3542 K): 5.3 ± 1.1 mPa·s
3 | [Re] [rhenium] |  |  |  | 14.6 ± 3 mPa·s | 13.9 ± 2.8 mPa·s | 13.2 ± 2.7 mPa·s | 12.5 ± 2.5 mPa·s | 12 ± 2.4 mPa·s | 11.4 ± 2.3 mPa·s | 10.9 ± 2.2 mPa·s | 10.4 ± 2.1 mPa·s | 10 ± 2 mPa·s | 9.6 ± 1.9 mPa·s | 9.2 ± 1.9 mPa·s | 8.8 ± 1.8 mPa·s | viscosity (3034 K): 14.9 ± 3 mPa·s; viscosity (3459 K): 9.9 ± 2 mPa·s; viscosity (3650 K): 8.5 ± 1.7 mPa·s; viscosity (3675 K): 8.4 ± 1.7 mPa·s
4 | [Ta] [tantalum] | 13.1 ± 2.7 mPa·s | 12.4 ± 2.5 mPa·s | 11.7 ± 2.4 mPa·s | 11.1 ± 2.3 mPa·s | 10.6 ± 2.2 mPa·s | 10.1 ± 2.1 mPa·s | 9.6 ± 2 mPa·s | 9.2 ± 1.9 mPa·s | 8.8 ± 1.8 mPa·s | 8.4 ± 1.7 mPa·s | 8.1 ± 1.6 mPa·s | 7.8 ± 1.6 mPa·s | 7.5 ± 1.5 mPa·s |  |  | viscosity (2880 K): 13.4 ± 2.7 mPa·s; viscosity (3293 K): 8.9 ± 1.8 mPa·s; viscosity (3514 K): 7.4 ± 1.5 mPa·s
5 | [W] [tungsten] |  |  |  |  |  |  | 15.7 ± 3.3 mPa·s | 14.6 ± 3 mPa·s | 13.7 ± 2.8 mPa·s | 12.8 ± 2.6 mPa·s | 12 ± 2.5 mPa·s | 11.3 ± 2.3 mPa·s | 10.6 ± 2.2 mPa·s | 10 ± 2.1 mPa·s | 9.4 ± 1.9 mPa·s | viscosity (3155 K): 16.7 ± 3.5 mPa·s; viscosity (3634 K): 9.1 ± 1.9 mPa·s; viscosity (3695 K): 8.5 ± 1.7 mPa·s
